According to patent US9457033B2, “Steroid alkaloids and uses thereof as antimicrobial agents against electron transport-deficient microbes and as potentiators for antimicrobial agents against pathogenic bacteria” (priority 2011, dated 2016):
In brackets after ≈: the same amount, converted by molar mass. Read-outs that look alike come from different tables or passages of the source. Each block holds one molecule with its values, some of them ahead of it.

Columns and labels:
S. aureus ATCC 29213 = experiment: MICs of control antibiotics for macromolecular biosynthesis assays; format: cell-based; conditions: Staphylococcus aureus, ATCC29213; ATCC 29213; data not shown; read-out: MIC
S. aureus SHY97-3906 = experiment: MIC, microdilution in CAMHB 24 h; format: cell-based, Staphylococcus aureus; conditions: Staphylococcus aureus, SHY973906; SHY97-3906; Cow (mastitis); read-out: MIC
S. aureus ATCC 43300 = experiment: MIC, microdilution in CAMHB 24 h; format: cell-based, Staphylococcus aureus; conditions: Staphylococcus aureus, ATCC 43300 / MRSA; ATCC 43300; Human (HA); MRSA; read-out: MIC
S. aureus Mu50 = experiment: MIC, microdilution in CAMHB 24 h; format: cell-based, Staphylococcus aureus; conditions: Staphylococcus aureus; Mu50; Human (SSTI); MRSA, VISA; read-out: MIC
[1] = test system: S. aureus CF07-L (normal strain); experiment: MIC, microdilution in BHI 48 h (Examples 1, 3); format: cell-based, Staphylococcus aureus
S. aureus N315 = experiment: microbe, parasite or virus in culture; format: cell-based, Staphylococcus aureus; conditions: Staphylococcus aureus, MRSA
S. aureus CF1A-L = experiment: MIC, microdilution in CAMHB 24 h; format: cell-based, Staphylococcus aureus; conditions: Staphylococcus aureus, CF1AL; CF1A-L; Human (CF lungs); read-out: MIC
S. aureus Newbould = experiment: MIC, microdilution in CAMHB 24 h; format: cell-based, Staphylococcus aureus; conditions: Staphylococcus aureus; Newbould; Cow (mastitis); read-out: MIC
S. aureus CF2A-L = experiment: MIC, microdilution in CAMHB 24 h; format: cell-based; conditions: Staphylococcus aureus, CF2AL; CF2A-L; Human (CF lungs); read-out: MIC
S. aureus CF4B-L = experiment: MIC, microdilution in CAMHB 24 h; format: cell-based, Staphylococcus aureus; conditions: Staphylococcus aureus, CF4BL; CF4B-L; Human (CF lungs); read-out: MIC
[2] = test system: S. aureus CF1A-L (normal strain); experiment: MIC, microdilution in BHI 48 h; format: cell-based, Staphylococcus aureus; conditions: Staphylococcus aureus; CF1A-L, normal strain; read-out: MIC
S. aureus MA078038 = experiment: MIC, microdilution in CAMHB 24 h; format: cell-based, Staphylococcus aureus; conditions: Staphylococcus aureus; MA078038; Human (CA); MRSA; read-out: MIC
S. aureus SCV CF1D-S = experiment: MIC, microdilution in BHI 48 h; format: cell-based, Staphylococcus aureus; conditions: Staphylococcus aureus, SCVCF1DS
S. aureus CF7A-L = experiment: MIC, microdilution in CAMHB 24 h; format: cell-based, Staphylococcus aureus; conditions: Staphylococcus aureus; CF7A-L; Human (CF lungs); MRSA; read-out: MIC
S. aureus CF8E-L = experiment: MIC, microdilution in CAMHB 24 h; format: cell-based, Staphylococcus aureus; conditions: Staphylococcus aureus, CF8EL; CF8E-L; Human (CF lungs); read-out: MIC
S. aureus ATCC BAA-41 = experiment: MIC, microdilution in CAMHB 24 h; format: cell-based, Staphylococcus aureus; conditions: Staphylococcus aureus, ATCC BAA-41 / MRSA; ATCC BAA-41; Human (HA); MRSA; read-out: MIC
[3] = test system: S. aureus SCV NewbouldΔhemB; experiment: MIC, microdilution in BHI 48 h; format: cell-based, Staphylococcus aureus; conditions: Staphylococcus aureus
S. aureus CF07-L = experiment: MIC, microdilution in CAMHB 24 h; format: cell-based, Staphylococcus aureus; conditions: Staphylococcus aureus, CF07L; CF07-L; Human (CF lungs); read-out: MIC
S. aureus CF9A-L = experiment: MIC, microdilution in CAMHB 24 h; format: cell-based, Staphylococcus aureus; conditions: Staphylococcus aureus; CF9A-L; Human (CF lungs); MRSA; read-out: MIC
S. aureus CF35A-L = experiment: MIC, microdilution in CAMHB 24 h; format: cell-based, Staphylococcus aureus; conditions: Staphylococcus aureus; CF35A-L; Human (CF lungs); MRSA; read-out: MIC
S. aureus Sa220c = experiment: MIC, microdilution in CAMHB 24 h; format: cell-based, Staphylococcus aureus; conditions: Staphylococcus aureus; Sa220c; Human (SSTI); MRSA; read-out: MIC
S. aureus SCV CF07-S = experiment: MIC, microdilution in BHI 48 h (Examples 1, 3); format: cell-based, Staphylococcus aureus
[4] = test system: S. aureus Newbould (normal strain); experiment: MIC, microdilution in BHI 48 h; format: cell-based, Staphylococcus aureus; conditions: Staphylococcus aureus; Newbould, normal strain; read-out: MIC
S. aureus MRSA COL = experiment: MIC, microdilution in CAMHB 24 h; format: cell-based, Staphylococcus aureus; conditions: Staphylococcus aureus; MRSA COL; Human (SSTI); read-out: MIC
S. aureus 8325-4 = experiment: MIC, microdilution in CAMHB 24 h; format: cell-based, Staphylococcus aureus; conditions: Staphylococcus aureus, 83254; 8325-4; Laboratory strain; read-out: MIC
S. aureus Newman = experiment: MIC, microdilution in CAMHB 24 h; format: cell-based, Staphylococcus aureus; conditions: Staphylococcus aureus; Newman; Human (Osteo); read-out: MIC
S. aureus CF6B-L = experiment: MIC, microdilution in CAMHB 24 h; format: cell-based, Staphylococcus aureus; conditions: Staphylococcus aureus, CF6BL; CF6B-L; Human (CF lungs); read-out: MIC
S. aureus Sa228c = experiment: MIC, microdilution in CAMHB 24 h; format: cell-based, Staphylococcus aureus; conditions: Staphylococcus aureus, MRSA

MIC (S. aureus ATCC 29213): 0.008 to 0.015 µg/mL (≈ 0.00972 to 0.0182 µM)
SMILES: CO[C@H]1/C=C/O[C@@]2(C)Oc3c(C)c(O)c4c(O)c(c(/C=N/N5CCN(C)CC5)c(O)c4c3C2=O)NC(=O)/C(C)=C\C=C\[C@H](C)[C@H](O)[C@@H](C)[C@@H](O)[C@@H](C)[C@H](OC(C)=O)[C@@H]1C [rifampicin]

SMILES: O=C(O)c1cn(C2CC2)c2cc(N3CCNCC3)c(F)cc2c1=O [Ciprofloxacin, ciprofloxacin]
MIC (S. aureus SHY97-3906): 0.25 µg/mL (≈ 0.754 µM)
MIC (S. aureus ATCC 43300): 0.5 µg/mL (≈ 1.51 µM)
MIC (S. aureus Mu50): 32 to 64 µg/mL (≈ 96.6 to 193 µM)
MIC ([1]; CF07-L + HQNO at 20 μg/ml): 0.25 µg/mL
MIC ([1]; CF07-L, without HQNO): 0.5 µg/mL (≈ 1.51 µM)
MIC ([1]; Staphylococcus aureus, CF07-L, normal strain, read-out: MIC): 0.5 µg/mL (≈ 1.51 µM)
MIC (S. aureus N315): 0.25 µg/mL (≈ 0.754 µM)
MIC (S. aureus CF1A-L): 0.5 to 1 µg/mL (≈ 1.51 to 3.02 µM)
MIC (S. aureus Newbould): 0.25 µg/mL (≈ 0.754 µM)
MIC (S. aureus CF2A-L): 0.25 µg/mL (≈ 0.754 µM)
MIC (S. aureus CF4B-L): 0.25 to 0.5 µg/mL (≈ 0.754 to 1.51 µM)
MIC [2]: 0.5 µg/mL (≈ 1.51 µM)
MIC (S. aureus MA078038): 16 µg/mL (≈ 48.3 µM)
MIC (S. aureus SCV CF1D-S): 0.12 µg/mL (≈ 0.362 µM)
MIC (S. aureus CF7A-L): > 64 µg/mL
MIC (S. aureus CF8E-L): 1 µg/mL (≈ 3.02 µM)
MIC (S. aureus ATCC BAA-41): > 64 µg/mL
MIC [3]: 0.12 to 0.25 µg/mL (≈ 0.362 to 0.754 µM)
MIC (S. aureus CF07-L): 0.5 µg/mL (≈ 1.51 µM)
MIC (S. aureus CF9A-L): > 64 µg/mL
MIC (S. aureus CF35A-L): > 64 µg/mL
MIC (S. aureus Sa220c): 32 µg/mL (≈ 96.6 µM)
MIC (S. aureus SCV CF07-S; CF07-S + HQNO at 20 μg/ml): 0.12 µg/mL
MIC (S. aureus SCV CF07-S; CF07-S, without HQNO): 0.12 µg/mL (≈ 0.362 µM)
MIC (S. aureus SCV CF07-S; Staphylococcus aureus, SCVCF07S): 0.12 µg/mL (≈ 0.362 µM)
MIC [4]: 0.25 to 0.5 µg/mL (≈ 0.754 to 1.51 µM)
MIC (S. aureus MRSA COL): 0.5 µg/mL (≈ 1.51 µM)
MIC (S. aureus 8325-4): 0.25 to 0.5 µg/mL (≈ 0.754 to 1.51 µM)
MIC (S. aureus Newman): 0.25 µg/mL (≈ 0.754 µM)
MIC (S. aureus CF6B-L): > 64 µg/mL
MIC (S. aureus Sa228c): > 64 µg/mL
